Reference: patent publication US11959083B2, “Immunosuppression-reverting oligonucleotides inhibiting the expression of CD39” (Secarna Pharmaceuticals GmbH & Co. KG, priority 2016, dated 2024)
l = locked nucleic acid (LNA); d = 2'-deoxy (DNA)

What was measured:
mCD39 mRNA = mCD39 mRNA knockdown efficacy screen in A20 cells (single dose, gymnotic delivery, QuantiGene Singleplex); type: cell-based, mouse; details: 10 μM, three days, normalized to HPRT1
Description: FIG. 14-1 and 14-2 show mCD39 mRNA knockdown efficacy of mCD39 antisense oligonucleotides in the murine cancer cell line A20 (mouse B cell lymphoma). A20 cells were treated with a single dose of 10 μM of the respective antisense oligonucleotide. As negative control, cells were treated with neg1, an antisense oligonucleotide having the sequence CGTTTAGGCTATGTACTT (SEQ ID NO:99). Residual mCD39 mRNA expression relative to untreated cells is depicted. Expression values were normalized to expression of the housekeeping gene HPRT1.
In order to analyze the efficacy of mCD39 antisense oligonucleotides with regard to the knockdown of mCD39 mRNA expression in a cancer cell line, A20 (mouse B cell lymphoma, ATCC) cells were treated with a single dose (concentration: 10 μM without addition of any transfection reagent; this process is called gymnotic delivery) of the respective antisense oligonucleotide as indicated in FIG. 14. As control, cells were treated with neg1, an antisense oligonucleotide having the sequence CGTTTAGGCTATGTACTT (SEQ ID NO:99). mCD39 and HPRT1 mRNA expression was analyzed after three days using the QuantiGene Singleplex assay (Affymetrix) and mCD39 expression values were normalized to HPRT1 expression values.

hCD39 protein = hCD39 protein expression in primary human CD8+ and CD4+ T cells after oligonucleotide removal (flow cytometry); type: cell-based; details: 10 μM for six days with anti-CD3, compared to untreated control cells
Description: Thereafter, oligonucleotides and anti-CD3 were removed and hCD39 protein expression was analyzed by flow cytometry three, six, and eleven days after oligonucleotide removal. CD39 protein expression is depicted as mean fluorescence intensity (MFI) and was calculated by subtracting the MFI of the unspecific isotype control from the MFI of CD39. Depicted is the mean of duplicate wells+/−SD.
A04040H had shown very potent activity in suppressing hCD39 expression on mRNA- and protein-level in human cancer cell lines. In the next step, its activity in primary human T cells was investigated. Furthermore, the persistence of the effects after antisense oligonucleotide removal was examined. Therefore, CD8^+ and CD4^+ T cells were isolated from peripheral blood and activated for a total treatment time of six days with anti-CD3 in the presence of 10 μM of the hCD39 specific antisense oligonucleotide A04040H (black column) or the control oligonucleotide S6 (white column), which is not complementary to any human mRNA. […] Thereafter, oligonucleotides were removed and hCD39 protein expression was analyzed three, six, and eleven days after oligonucleotide removal by flow cytometry (FIG. 9).

CD39 protein = CD39 protein expression in human CD8+ T cells (flow cytometry, Example 11); type: cell-based; details: 5 μM, 5 days, anti-CD3
Description: (§1) FIG. 12A-12C depict human CD8^+ T cells which were labelled with cell proliferation dye, activated with anti-CD3 and treated with 5 μM of the antisense oligonucleotide A04040H (black column) or the control oligonucleotide S6 (white column) for a total treatment time of 5 days. In the vehicle control (striped column), cells were activated with anti-CD3 only. Subsequently, 400 μM of ATP or vehicle were added to cells on day 3 and day 4 after start of oligonucleotide treatment. Furthermore, as additional control, the small molecular CD39-inhibitor ARL67156 trisodium salt was added at 20 μM to cells on day 4, for an incubation time of 24 h (checked column). On day 5 after start of oligonucleotide treatment, (FIG. 12A) CD39 protein expression, (FIG. 12B) proliferation and (FIG. 12C) absolute cell numbers of CD8^+ T cells were analyzed using Flow Cytometry. Depicted is the mean of triplicate wells+/−SD.
In cancer, ATP is released from tumor cells for example after cell death induced by chemotherapy or radiation therapy. Since the CD39-CD73 axis plays an important role for T cell function the effects of A04040H on T cell proliferation in the presence or absence of extracellular ATP were investigated. […] On day 5 after start of oligonucleotide treatment, CD39 protein expression, proliferation, and absolute cell numbers of CD8^+ T cells were analyzed using Flow Cytometry.

human CD8+ T cells = assay: Proliferation and absolute cell numbers of human CD8+ T cells in presence or absence of extracellular ATP; type: cell-based; details: 5 μM oligonucleotide 5 days or 20 μM ARL67156 24 h
Description: as §1
In cancer, ATP is released from tumor cells for example after cell death induced by chemotherapy or radiation therapy. Since the CD39-CD73 axis plays an important role for T cell function the effects of A04040H on T cell proliferation in the presence or absence of extracellular ATP were investigated. Human CD8^+ T cells were labelled with cell proliferation dye, activated with anti-CD3 and treated with 5 μM of the antisense oligonucleotide A04040H or the control oligonucleotide S6 for a total treatment time of 5 days. In the vehicle control, cells were activated with anti-CD3 only. Subsequently, 400 μM of ATP or vehicle were added to cells on day 3 and day 4 after start of oligonucleotide treatment. Furthermore, as additional control, the small molecular CD39-inhibitor ARL67156 trisodium salt was added at 20 μM to cells on day 4 for an incubation time of 24 h. On day 5 after start of oligonucleotide treatment, CD39 protein expression, proliferation, and absolute cell numbers of CD8^+ T cells were analyzed using Flow Cytometry.

[1] = absence of extracellular ATP, vs vehicle
[2] = supplementation with 400 μM of ATP

Substance | Relative mCD39 mRNA expression (compared to non-treated cells) (mCD39 mRNA) | hCD39 protein expression (MFI) after oligonucleotide removal (hCD39 protein) | CD39 protein expression (CD39 protein) | absolute cell numbers of CD8+ T cells (human CD8+ T cells; [1]) | proliferation of CD8+ T cells (human CD8+ T cells; [1]) | absolute numbers of CD8+ T cells (human CD8+ T cells; [2]) | proliferation of CD8+ T cells (human CD8+ T cells; [2])
+C*+G*+T*T*T*A*G*G*C*T*A*T*G*T*A*+C*+T*+T (CGTTTAGGCTATGTACTT; chemistry not fully specified) [neg1, negative control antisense oligonucleotide not hybridizing with CD39, described in WO2014154843 A1, reference compound] | 0.67 |  |  |  |  |  | 
+G*+T*+T*T*G*T*G*T*G*A*G*A*G*C*+T*+T (antisense GTTTGTGTGAGAGCTT; sugars from the 5' end l3 d11 l2, all phosphorothioate, methylation of C not given here) [A04040H] |  | significantly suppressed hCD39 protein expression for a duration of at least six days after removal | potently suppressed | no differences | no differences | not altered | not reduced
